Source: EPA's aquatic toxicity sets

Test system: Tetrahymena pyriformis
Test: 48 h IGC50 (-log10 mol/L); higher = more toxic

| SMILES | 48 h IGC50 (-log10 mol/L) |
| --- | --- |
| O=C1C=C(c2ccccc2)C(=O)C=C1c1ccccc1 | 4.48 |
| CC(C)(C)c1ccc(Br)cc1 | 3.75 |
| CCCCC(Br)CBr (stereo not drawn) | 4.15 |
| C=CS(=O)(=O)c1ccccc1 | 4.28 |
| OCc1cccc(O)c1 | 1.98 |
| O=Cc1ccc([N+](=O)[O-])s1 | 4.98 |
| CCCCCCCC=CCO | 4.13 |
| OCC(Br)(Br)Br | 3.11 |
| N#Cc1ccc[nH]1 | 2.42 |
| CCOC(=O)Cc1ccc(O)c(OC)c1 | 2.77 |
| CCC(=O)c1ccccc1 | 2.93 |
| N#CCCC#N | 1.18 |
| CCCI | 2.61 |
| CCCCCC#CCCO | 3.34 |
| CCCOC=O | 1.98 |
| CCCCCOc1ccc(N)cc1 | 3.97 |
| Cc1cc(O)ccc1O | 4.86 |
| O=[N+]([O-])c1cc(Br)ccc1Br | 4.37 |
| NC(N)=NC(N)=Nc1ccccc1 | 2.61 |
| Cc1cc(C)c(C)c(O)c1 | 3.36 |
| C=COC(=O)CCCCC | 3.08 |
| CN(C)c1ccc(C=O)cc1 | 3.23 |
| OCC(Cl)Cl | 2.01 |
| CC(C)COC(=O)C(C)C | 2.41 |

| SMILES | 48 h IGC50 (-log10 mol/L) |
| --- | --- |
| C=C(C)C(=O)OCC | 2.07 |
| NC(CO)CO | 1.32 |
| Nc1ccc([N+](=O)[O-])cc1[N+](=O)[O-] | 3.72 |
| CCCCCCOC(=O)c1ccccc1 | 4.94 |
| C=COC(=O)c1ccccc1 | 3.08 |
| CCCC(O)Cc1ccccc1 (stereo not drawn) | 3.16 |
| CCCC#CCCO | 2.68 |
| NC(=O)c1ccc(Cl)cc1 | 3.09 |
| C[C@H](N=C=S)c1ccccc1 | 5.7 |
| COc1cccc(C#N)c1 | 3.01 |
| Cc1cc(Cl)ncc1[N+](=O)[O-] | 3.42 |
| O=[N+]([O-])c1cccc(O)c1 | 3.51 |
| O=C(Oc1cccc(O)c1)c1ccccc1 | 4.11 |
| CC(C)(C)c1cc(O)cc(C(C)(C)C)c1 | 4.64 |
| C=CCC(=O)O | 2.36 |
| Oc1c(Cl)cccc1Cl | 3.73 |
| CCCCCOc1ccc(C=O)cc1 | 4.18 |
| Oc1ccccc1-c1ccccc1O | 3.88 |
| Cc1ccc(CN)cc1 | 2.99 |
| Cc1cc(O)c(C(C)C)cc1Cl | 4.85 |
| Clc1ccccn1 | 2.16 |
| O=C(c1ccccc1O)c1ccccc1O | 4.16 |
| COc1ccc(C=O)cc1 | 2.95 |
| S=C=NCc1cccc2ccccc12 | 6.06 |

| SMILES | 48 h IGC50 (-log10 mol/L) |
| --- | --- |
| Nc1c([N+](=O)[O-])cc(Cl)cc1[N+](=O)[O-] | 4.15 |
| CCCCC/C=C/C(=O)O | 3.21 |
| O=[N+]([O-])c1ccc(F)c(F)c1F | 4.89 |
| CCOC(=O)CCCBr | 2.97 |
| CCCCCCCCOC(=O)CC#N | 3.9 |
| c1ccc2nc3ccccc3nc2c1 | 4.4 |
| Oc1c(Cl)c(Cl)c(O)c(Cl)c1Cl | 5.11 |
| NC(=O)CCCl | 1.41 |
| CC=CC(=O)OC(C)C | 2.22 |
| Cc1ccc(C=O)c2ccccc12 | 4.12 |
| CC(C)(C)c1ccc(CO)cc1 | 3.48 |
| CCOC(=O)C#Cc1ccccc1 | 4.67 |
| COC(=O)C(C)(C)C | 1.72 |
| CCCCCCCCC(O)CCC (stereo not drawn) | 4.65 |
| OCC#Cc1ccccc1 | 3.07 |
| CC(=O)c1ccco1 | 1.96 |
| Cc1cccc(N)c1 | 2.72 |
| CCCOC(=O)CCl | 4.18 |
| O=Cc1ccc(Cl)o1 | 3.07 |
| CC(C)(C)c1ccc(O)c(N)c1 | 3.37 |
| CCC#CCC(C)O (stereo not drawn) | 2.38 |
| OCc1cccc(F)c1 | 2.61 |
| Fc1cc(F)c(F)nc1F | 2.39 |
| N#Cc1cc(Br)c(O)c(Br)c1 | 4.16 |

| SMILES | 48 h IGC50 (-log10 mol/L) |
| --- | --- |
| O=C(O)c1ccccc1Cl | 2.55 |
| Oc1cc(O)cc(O)c1 | 1.74 |
| CC(=O)OCCCCCCl | 2.87 |
| Nc1ncc([N+](=O)[O-])cn1 | 2.57 |
| CCC(C)(C)N | 2.3 |
| CCCCCCCCCCOC(C)=O | 4.88 |
| Nc1ccc(C(=O)c2ccccc2)cc1 | 3.68 |
| Cc1c(O)cccc1[N+](=O)[O-] | 3.78 |
| Cc1ccc(O)c([N+](=O)[O-])n1 | 3.39 |
| CC(C)c1ccc(C=O)cc1 | 3.67 |
| c1ccc2c(c1)ccc1cccnc12 | 4.31 |
| CCCCC/C=C/CO | 3.37 |
| Brc1ccoc1 | 2.52 |
| O=[N+]([O-])c1cc(Cl)c(Cl)c(Cl)c1Cl | 4.78 |
| CCCC/C=C/CO | 3.04 |
| O=C(O)c1ccccc1Br | 2.53 |
| Cc1cc(Br)cc(C)c1O | 4.16 |
| O=C(c1ccccc1)c1ccc(Br)cc1 | 4.26 |
| CCCCCCCN | 3.21 |
| Cc1cc([N+](=O)[O-])ccc1Br | 4.16 |
| CCCCC1CCC(=O)O1 (stereo not drawn) | 2.62 |
| CCCCC(=O)OCC | 2.64 |
| CCCC#CC(=O)OC | 3.76 |
| Oc1c(F)c(F)cc(F)c1F | 4.17 |

| SMILES | 48 h IGC50 (-log10 mol/L) |
| --- | --- |
| CC(C)(CO)CCl | 2.22 |
| O=C(OCc1ccccc1)c1ccc(O)cc1 | 4.55 |
| CCC(C)C(N)CO (stereo not drawn) | 2.34 |
| CCN(C)CC | 2.24 |
| Oc1ccc(Br)cc1 | 3.68 |
| C=CC(=O)N(C)C | 1.76 |
| CC(C)(Br)C(=O)O | 2.42 |
| CCCCCCCC(=O)c1ccccc1 | 4.89 |
| O=[N+]([O-])CBr | 4.64 |
| Fc1ccccn1 | 1.8 |
| CCCC(CO)CCC | 3.13 |
| Cc1ccc2ccccc2c1[N+](=O)[O-] | 4.04 |
| N#Cc1ccc(-c2ccccc2)cc1 | 4.24 |
| O=[N+]([O-])c1ccc(O)c(O)c1 | 4.17 |
| CNC(C)=O | 1.02 |
| CCCCCCCCCCOC(=O)CC#N | 4.7 |
| Nc1c(Br)cc(Cl)cc1Br | 4.52 |
| C#CC(=O)OC | 4.77 |
| CC(=O)c1ccc[nH]1 | 2.09 |
| OCC#CCO | 1.12 |
| OCc1ccc(F)cc1 | 2.38 |
| O=[N+]([O-])c1ccc(O)c(Cl)c1 | 4.18 |
| CC=CCO | 1.53 |
| O=[N+]([O-])c1ccc(Nc2ccccc2)cc1 | 4.89 |

| SMILES | 48 h IGC50 (-log10 mol/L) |
| --- | --- |
| CCC(C)(C)O | 1.83 |
| COc1cc(Cl)cc(Cl)c1 | 3.93 |
| CC/C=C/C(=O)O | 2.72 |
| O=[N+]([O-])c1cc(Cl)c(Cl)c([N+](=O)[O-])c1Cl | 5.6 |
| CCCCCC/C=C/CO | 3.75 |
| C#CC(C)=O | 4.96 |
| C#CCOC(=O)CC | 2.35 |
| CCC(C)CO (stereo not drawn) | 2.05 |
| CC(C)(C)c1cc(N)cc(C(C)(C)C)c1 | 4.44 |
| CCC[N+](=O)[O-] | 2.01 |
| c1cnc2c(c1)ccc1ncccc12 | 4.07 |
| CCC/C=C/CO | 2.53 |
| CCSCC | 2.02 |
| O=C/C=C/c1ccco1 | 3.37 |
| O=Cc1c(O)cc(O)cc1O | 3.13 |
| O=C(O)CCCCCC(=O)O | 2.42 |
| O=[N+]([O-])c1cc(Br)cc(F)c1O | 4.62 |
| OCCCCCc1ccccc1 | 3.42 |
| O=[N+]([O-])c1cnc(Cl)c([N+](=O)[O-])c1 | 5.64 |
| N#Cc1cccc(O)c1 | 2.94 |
| C=COC(=O)CCC | 2.62 |
| CCCCCC1CCC(=O)O1 (stereo not drawn) | 3.01 |
| O=[N+]([O-])c1cccc2ncccc12 | 3.39 |
| CC(C)(CN)CO | 2.08 |

| SMILES | 48 h IGC50 (-log10 mol/L) |
| --- | --- |
| ClC/C=C/CCl | 3.77 |
| O=Cc1ccoc1 | 3 |
| N#CCCCCCCCl | 3.29 |
| CCOC(=O)C(Br)(Br)C(=O)OCC | 5.14 |
| CC(C)=CC=O | 3.09 |
| CCCCOC(N)=O | 2.03 |
| COC(=O)CCC(=O)OC | 1.94 |
| CCCCOC(=O)/C=C/c1ccccc1 | 4.53 |
| C=CC(=O)NCNC(=O)C=C | 2.48 |
| CC(C)(C)C#N | 1.68 |
| CCOC(=O)C(Br)C(C)Br (stereo not drawn) | 4.44 |
| C=CCOC(=O)CCC | 2.37 |
| O=Cc1ccc([N+](=O)[O-])c(O)c1 | 3.27 |
| NC(=O)COc1ccccc1 | 2.27 |
| COC(=O)CC#N | 1.66 |
| CCCCCCCS | 4.02 |
| CC(O)(Cc1ccccc1)c1ccccc1 (stereo not drawn) | 3.8 |
| N#Cc1ccc(Cl)s1 | 2.92 |
| CC1CC(=O)O1 (stereo not drawn) | 2.24 |
